The test system of test [1] is Cavia porcellus. Put plainly: Compound was tested for antigen induced airway obstruction in guinea pig at 1.0 hr upon peroral administration. The class given is functional. As to conditions: po.
The subject of test [2] is U-937. Put plainly: Compound was evaluated for influx of calcium mobilization in human U937 cells. The class given is functional, cell-based. For orientation: Calcium assays in cells follow changes in intracellular calcium, usually with a dye or a luminescent sensor.
Test [3] deals with Cavia porcellus. The test is described as follows: Compound was tested for antigen induced airway obstruction in guinea pig at 2.0 hr upon peroral administration. Type of test: functional. As to conditions: po.

Here are results for four molecules from ChEMBL document CHEMBL1131366, “Development of new chromanol antagonists of leukotriene D4” (Bioorg Med Chem Lett, 1998).

What is called ED50 is the dose at which the effect has come halfway, by size or by number of responders. As usually defined, the IC50 is the midpoint of a concentration-inhibition curve.

As to `C[C@H]1Oc2ccc(OCc3nc4cc(F)ccc4s3)cc2[C@H](O)[C@@H]1Cc1cccc(NS(=O)(=O)C(F)(F)F)c1` (stereo in doubt; (+)-26), the ED50 in test [1] was 0.5 mg/kg. The IC50 in test [2] is 8 nM. For the molecule `COc1cc(C(=O)NS(=O)(=O)c2ccccc2C)ccc1Cc1cn(C)c2ccc(NC(=O)OC3CCCC3)cc12` [ZAFIRLUKAST], the 50% effect level in test [3] (ED50) was put at a dose of 0.9 mg/kg.

In turn, `O=C(Nc1cccc2c(=O)cc(-c3nnn[nH]3)oc12)c1ccc(OCCCCc2ccccc2)cc1` yielded a median effective dose (ED50) in test [1] of 1.5 mg/kg. Moreover, in test [2], the 50% inhibitory concentration (IC50) turned out to be 1 nM.

Regarding `O=C(O)c1cccc(C[C@@H]2COc3ccc(OCc4nc5cc(F)ccc5s4)cc3[C@@H]2O)c1`, the IC50 in test [2] stood at 310 nM. The molecule further came in with an ED50 in test [3] of 10.2 mg/kg.
